Measured values from US9561231B2 (AbbVie Inc., priority 2012, dated 2017).

Legend:
MDAMB231 = test: Proliferation panel assay: MDAMB231; assay type: cell-based; details: Homo sapiens, MDA-MB-231, 120 h; MDAMB231 (Breast); 5 days, Cell Titer Glo; read-out: Cellular Proliferation EC50
GEO = test: Proliferation panel assay: GEO; assay type: cell-based; details: 120 h; GEO (Colon); 5 days, Cell Titer Glo; read-out: Cellular Proliferation EC50
RPMI-8226 = test: Proliferation panel assay: RPMI-8226; assay type: cell-based; details: Homo sapiens, 120 h; RPMI-8226 (Multiple Myeloma); 5 days, Cell Titer Glo; read-out: Cellular Proliferation EC50
H460 = test: Proliferation panel assay: H460; assay type: cell-based; details: Homo sapiens, NCI-H460, 120 h; H460 (NSCLC); 5 days, Cell Titer Glo; read-out: Cellular Proliferation EC50
[1] = test system: breast cancer cell line MX-1; test: MX-1 cell line proliferation assay (3-day); assay type: cell-based; details: Homo sapiens, MX1; MX-1 cells, 72 h incubation, Cell Titer Glo; read-out: Cellular proliferation: EC50
Outline: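 MX-1 cells in RPMI/10% FBS, plated 5000/well overnight, then exposed to compound at final 3 to 0.0001 μM (3-fold series) for 3 days at 37° C. Cell Titer Glo luminescence normalized to DMSO-treated cells; EC50 from sigmoidal curve fit.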

EJ-1 = test: Proliferation panel assay: EJ-1; assay type: cell-based; details: EJ1, 120 h; EJ-1 (Bladder); 5 days, Cell Titer Glo; read-out: Cellular Proliferation EC50
DLD-1 = test: Proliferation panel assay: DLD-1; assay type: cell-based; details: Homo sapiens, 120 h; DLD-1 (Colon); 5 days, Cell Titer Glo; read-out: Cellular Proliferation EC50
[2] = test system: LPS induced IL-6 production; test: LPS (lipopolysaccharide) induced IL-6 production mouse assay; details: 30 mg/kg oral, 1 h before LPS 2.5 mg/kg i.p.; serum IL-6 2 h after LPS; p<0.05
Experimental: Severe combined immunodeficient female mice (5 per group) received an intraperitoneal challenge of lipopolysaccharide (2.5 mg/kg, L2630 E. coli 0111:B4) one hour after oral administration of compounds. Mice were euthanized 2 hours after lipopolysaccharide injection, blood was removed by cardiac puncture, and then the serum harvested from the blood samples was frozen at −80° C. On the day of the assay the serum samples were brought to room temperature and then diluted 1:20 in phosphate-buffered saline containing 2% bovine serum albumin. Interleukin-6 measurements were performed using a cytokine assay from Meso Scale Discovery (Gaithersburg, Md.) for mouse serum analysis according to the manufacturer's protocol and read on a SECTOR Imager 6000 (Meso Scale Discovery, Gaithersburg, Md.) instrument. Statistical analysis was performed using Prism software (version 5.0) incorporating Dunnett's one way ANOVA. The IL-6 mean and standard deviation of the group of vehicle treated animals were compared with the IL-6 mean and standard deviation of the group treated with drug. A p value <0.05 means that there is less than a 5% probability that the mean values in the two groups are equal.

Row | SMILES | EC50 (MDAMB231) | EC50 (GEO) | EC50 (RPMI-8226) | EC50 (H460) | EC50 [1] | EC50 (EJ-1) | EC50 (DLD-1) | Inhibition of LPS induced IL-6 production, % inhibition [2]
1 | Cn1cc(-c2cc(NS(C)(=O)=O)ccc2Oc2ccccc2)ccc1=O [Example 224, N-[3-(1-methyl-6-oxo-1,6-dihydropyridin-3-yl)-4-phenoxyphenyl]methanesulfonamide] | 720 nM | 550 nM | 279 nM | 110 nM | 208 nM | 1590 nM | 850 nM | –
2 | Cc1cc(-c2cc(NS(C)(=O)=O)ccc2Oc2ccccc2)c[nH]c1=O [Example 261, N-[3-(5-methyl-6-oxo-1,6-dihydropyridin-3-yl)-4-phenoxyphenyl]methanesulfonamide] | 460 nM | 670 nM | 305 nM | 310 nM | 387 nM | 1160 nM | 620 nM | 42.2 @ 30 mg/kg %
